The results in this text go back to US11447465B2, “Pharmaceutical compounds for treatment of medical disorders” (Achillion Pharmaceuticals, Inc., priority 2017, dated 2022).

Read-outs that look alike come from different tables or passages of the source. Where only a bound is given, the exact number is not on record here.

For this experiment, the target named is Human Factor D (Homo sapiens (Human), UniProt P00746). Briefly: Human Factor D Assay. The format is biochemical. As to conditions: Human Factor D 80 nM, substrate Z-L-Lys-SBzl. As for the experimental part:
Human Factor D (purified from human serum, Complement Technology, Inc.) at 80 nM final concentration is incubated with test compound at various concentrations for 5 min at room temperature in 50 mM Tris, 1M NaCl, pH 7.5. A synthetic substrate Z-L-Lys-SBzl and DTNB (Ellman's reagent) are added to final concentrations of 100 μM each. Absorbance at 405 nm (A405) is recorded at 30 second intervals for 30 min using a microplate spectrophotometer. IC50 values are calculated by nonlinear regression of Complement Factor D reaction rates as a function of test compound concentration.

Where [1] appears, read: Table 5, read-out: IC50 (Stars).

Chain of Human Factor D (P00746 26-253): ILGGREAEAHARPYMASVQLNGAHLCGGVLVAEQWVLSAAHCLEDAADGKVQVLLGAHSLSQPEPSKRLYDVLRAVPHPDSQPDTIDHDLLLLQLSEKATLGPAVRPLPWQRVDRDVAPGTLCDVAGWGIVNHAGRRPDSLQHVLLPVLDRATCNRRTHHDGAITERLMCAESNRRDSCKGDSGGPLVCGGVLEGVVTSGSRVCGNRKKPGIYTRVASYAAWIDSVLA

Turning to `CC(=O)c1nn(CC(=O)N2[C@H](C(=O)Nc3nc(Br)ccc3C)C[C@@]3(CNC(=O)CC(F)(F)F)C[C@@H]23)c2c(C)cccc12` [Compound T-35, (1R,3S,5R)-2-(2-(3-acetyl-7-methyl-1H-indazol-1-yl)acetyl)-N-(6-bromo-3-methylpyridin-2-yl)-5-((3,3,3-trifluoropropanamido)methyl)-2-azabicyclo[3.1.0]hexane-3-carboxamide], the IC50 under setting [1] was < 1 µM.

On to `CC(=O)c1nn(CC(=O)N2[C@H]3C[C@@]3(C)C[C@H]2C(=O)Nc2nc(Br)ccc2C)c2c(S(C)(=N)=O)cccc12` (stereo partly drawn) [Compound T-36, (1S,3S,5S)-2-(2-(3-acetyl-7-(S-methylsulfonimidoyl)-1H-indazol-1-yl)acetyl)-N-(6-bromo-3-methylpyridin-2-yl)-5-methyl-2-azabicyclo[3.1.0]hexane-3-carboxamide], for which the IC50 under setting [1] was > 10 µM. With `CC(=O)c1nn(CC(=O)N2C[C@H](F)C[C@H]2C(=O)Nc2cccc(Br)n2)c2c1CCCC2` [Compound T-37, (2S,4R)-1-(2-(3-acetyl-4,5,6,7-tetrahydro-1H-indazol-1-yl)acetyl)-N-(6-bromopyridin-2-yl)-4-fluoropyrrolidine-2-carboxamide], the IC50 under setting [1] fell in the range of 1 to 10 µM. As for `CC(=O)c1nn(CC(=O)N2[C@H]3C[C@@]3(CN(C)C)C[C@H]2C(=O)NCc2cccc(Cl)c2F)c2cc(P(C)(=O)O)ccc12` [Compound T-38, (3-acetyl-1-(2-((1S,3S,5S)-3-((3-chloro-2-fluorobenzyl)carbamoyl)-5-((dimethylamino)methyl)-2-azabicyclo[3.1.0]hexan-2-yl)-2-oxoethyl)-1H-indazol-6-yl)(methyl)phosphinic acid], the IC50 under setting [1] lay in the range of 1 to 10 µM. Regarding `CC(=O)c1nn(CC(=O)N2[C@H](C(=O)Nc3nc(Br)ccc3C)C[C@@]3(CN4C[C@H]5CCC[C@H]5C4)C[C@@H]23)c2c(C)cccc12` [Compound T-39, (1R,3S,5R)-2-(2-(3-acetyl-7-methyl-1H-indazol-1-yl)acetyl)-N-(6-bromo-3-methylpyridin-2-yl)-5-(((3aR,6aS)-hexahydrocyclopenta[c]pyrrol-2(1H)-yl)methyl)-2-azabicyclo[3.1.0]hexane-3-carboxamide], the IC50 under setting [1] is < 1 µM. On the same count and under the same terms, with `CC(=O)c1nn(CC(=O)N2[C@H](C(=O)Nc3nc(Br)ccc3C)C[C@@]3(C)C[C@@H]23)c2c(S(C)=N)cccc12` (stereo partly drawn) [Compound T-40, (1R,3S,5R)-2-(2-(3-acetyl-7-(S-methylsulfinimidoyl)-1H-indazol-1-yl)acetyl)-N-(6-bromo-3-methylpyridin-2-yl)-5-methyl-2-azabicyclo[3.1.0]hexane-3-carboxamide] the figure was < 1 µM; with `CC(=O)c1nn(CC(=O)N2[C@H](C(=O)Nc3nc(Br)ccc3C)C[C@@]3(C)C[C@@H]23)c2c(S(C)(=N)=O)cccc12` (stereo partly drawn) [Compound T-41, (1R,3S,5R)-2-(2-(3-acetyl-7-(S-methylsulfonimidoyl)-1H-indazol-1-yl)acetyl)-N-(6-bromo-3-methylpyridin-2-yl)-5-methyl-2-azabicyclo[3.1.0]hexane-3-carboxamide], < 1 µM; with `CC(=O)c1nn(CC(=O)N2[C@H](C(=O)Nc3nc(Br)ccc3C)C[C@@]3(CN4CC5(CCCC5)C4)C[C@@H]23)c2c(C)cccc12` [Compound T-42, (1R,3S,5R)-5-(2-azaspiro[3,4]octan-2-ylmethyl)-2-(2-(3-acetyl-7-methyl-1H-indazol-1-yl)acetyl)-N-(6-bromo-3-methylpyridin-2-yl)-2-azabicyclo[3.1.0]hexane-3-carboxamide], < 1 µM. Still for that read-out and setting: the same measure for `CC(=O)c1nn(CC(=O)N2[C@H](C(=O)Nc3nc(Br)ccc3C)C[C@@]3(CNC(=O)C4CCCC4(F)F)C[C@@H]23)c2c(C)cccc12` (stereo partly drawn) [Compound T-43, (1R,3S,5R)-2-(2-(3-acetyl-7-methyl-1H-indazol-1-yl)acetyl)-N-(6-bromo-3-methylpyridin-2-yl)-5-((2,2-difluorocyclopentane-1-carboxamido)methyl)-2-azabicyclo[3.1.0]hexane-3-carboxamide]: < 1 µM; for `CC(=O)c1cn(CC(=O)N2[C@H](C(=O)NCc3cccc(Cl)c3F)C[C@@]3(CN4CCN(C)CC4)C[C@@H]23)c2cc(P(=O)(O)O)ccc12` [Compound T-44, (3-acetyl-1-(2-((1R,3S,5R)-3-((3-chloro-2-fluorobenzyl)carbamoyl)-5-((4-methylpiperazin-1-yl)methyl)-2-azabicyclo[3.1.0]hexan-2-yl)-2-oxoethyl)-1H-indol-6-yl)phosphonic acid]: < 1 µM.

Take `CC(=O)c1cn(CC(=O)N2[C@H]3C[C@@]3(CN3CCN(C)CC3)C[C@H]2C(=O)NCc2cccc(Cl)c2F)c2cc(P(=O)(O)O)ccc12` [Compound T-45, (3-acetyl-1-(2-((1S,3S,5S)-3-((3-chloro-2-fluorobenzyl)carbamoyl)-5-((4-methylpiperazin-1-yl)methyl)-2-azabicyclo[3.1.0]hexan-2-yl)-2-oxoethyl)-1H-indol-6-yl)phosphonic acid]: the IC50 under setting [1] lay in the range of 1 to 10 µM. In the case of `CC(=O)c1cn(CC(=O)N2C3CC3(CN(C)C)C[C@H]2C(=O)NCc2cccc(Cl)c2F)c2cc(P(=O)(O)O)ccc12` (stereo partly drawn) [Compound T-46, (3-acetyl-1-(2-((3S)-3-((3-chloro-2-fluorobenzyl)carbamoyl)-5-((dimethylamino)methyl)-2-azabicyclo[3.1.0]hexan-2-yl)-2-oxoethyl)-1H-indol-6-yl)phosphonic acid], the IC50 under setting [1] is 1 to 10 µM. As to `CC(=O)c1cn(CC(=O)N2[C@H](C(=O)NCc3cccc(Cl)c3F)C[C@@]3(CN(C)C)C[C@@H]23)c2cc(P(C)(=O)O)ccc12` [Compound T-47, (3-acetyl-1-(2-((1R,3S,5R)-3-((3-chloro-2-fluorobenzyl)carbamoyl)-5-((dimethylamino)methyl)-2-azabicyclo[3.1.0]hexan-2-yl)-2-oxoethyl)-1H-indol-6-yl)(methyl)phosphinic acid], under setting [1], the IC50 was < 1 µM. On to `CC(=O)c1cn(CC(=O)N2[C@H]3C[C@@]3(CN(C)C)C[C@H]2C(=O)NCc2cccc(Cl)c2F)c2cc(P(C)(=O)O)ccc12` [Compound T-48, (3-acetyl-1-(2-((1S,3S,5S)-3-((3-chloro-2-fluorobenzyl)carbamoyl)-5-((dimethylamino)methyl)-2-azabicyclo[3.1.0]hexan-2-yl)-2-oxoethyl)-1H-indol-6-yl)(methyl)phosphinic acid], for which the IC50 under setting [1] lay in the range of 1 to 10 µM. With `CC(=O)c1nn(CC(=O)N2[C@H](C(=O)Nc3nc(Br)ccc3C)C[C@@]3(CN(C)C)C[C@@H]23)c2cc(C(=O)NS(=O)(=O)C3CC3)ccc12` [Compound T-49, 3-acetyl-1-(2-((1R,3S,5R)-3-((6-bromo-3-methylpyridin-2-yl)carbamoyl)-5-((dimethylamino)methyl)-2-azabicyclo[3.1.0]hexan-2-yl)-2-oxoethyl)-N-(cyclopropylsulfonyl)-1H-indazole-6-carboxamide], the IC50 under setting [1] was < 1 µM. On the same count and under the same terms, with `CC(=O)c1nn(CC(=O)N2[C@H]3C[C@@]3(CN(C)C)C[C@H]2C(=O)Nc2nc(Br)ccc2C)c2cc(C(=O)NS(=O)(=O)C3CC3)ccc12` [Compound T-50, 3-acetyl-1-(2-((1S,3S,5S)-3-((6-bromo-3-methylpyridin-2-yl)carbamoyl)-5-((dimethylamino)methyl)-2-azabicyclo[3.1.0]hexan-2-yl)-2-oxoethyl)-N-(cyclopropylsulfonyl)-1H-indazole-6-carboxamide] the figure was 1 to 10 µM. On to `CC(=O)c1nn(CC(=O)N2[C@H](C(=O)Nc3nc(Br)ccc3C3CC3)C[C@@]3(C)C[C@@H]23)c2ccc(O[C@@H]3CO[C@H]4[C@@H]3OC[C@H]4O)cc12` [Compound T-51, (1R,3S,5R)-2-(2-(3-acetyl-5-(((3R,3aR,6R,6aR)-6-hydroxy-hexahydrofuro[3,2-b]furan-3-yl)oxy)-1H-indazol-1-yl)acetyl)-N-(6-bromo-3-cyclopropyl-pyridin-2-yl)-5-methyl-2-azabicyclo[3.1.0]hexane-3-carboxamide], for which the IC50 (Table 6, read-out: IC5 (Stars)) was < 1 µM.

Turning to `CC(=O)c1nn(CC(=O)N2[C@H](C(=O)Nc3nc(Br)ccc3C)C[C@@]3(C)C[C@@H]23)c2ccc(O[C@@H]3CO[C@H]4[C@@H]3OC[C@H]4O)cc12` [Compound T-52, (1R,3S,5R)-2-(2-(3-acetyl-5-(((3R,3aR,6R,6aR)-6-hydroxy-hexahydrofuro[3,2-b]furan-3-yl)oxy)-1H-indazol-1-yl)acetyl)-N-(6-bromo-3-methylpyridin-2-yl)-5-methyl-2-azabicyclo[3.1.0]hexane-3-carboxamide], the IC50 (Table 6, read-out: IC5 (Stars)) is < 1 µM. Turning to `CC(=O)O[C@@H]1CO[C@H]2[C@@H]1OC[C@H]2Oc1ccc2c(c1)c(C(C)=O)nn2CC(=O)N1C[C@H](F)C[C@H]1C(=O)Nc1nc(Br)ccc1C` [Compound T-53, (3R,3aR,6R,6aR)-6-((3-acetyl-1-(2-((2S,4R)-2-((6-bromo-3-methylpyridin-2-yl)carbamoyl)-4-fluoropyrrolidin-1-yl)-2-oxoethyl)-1H-indazol-5-yl)oxy)hexahydrofuro[3,2-b]furan-3-yl acetate], the IC50 (Table 6, read-out: IC5 (Stars)) is < 1 µM. The same measure, in the same setting: the same measure for `CC(=O)c1nn(CC(=O)N2C[C@H](F)C[C@H]2C(=O)Nc2cccc(Br)n2)c2ccc(OCCS(=O)(=O)CC3(C)COC3)cc12` [Compound T-54, (2S,4R)-1-(2-(3-acetyl-5-(2-(((3-methyloxetan-3-yl)methyl)sulfonyl)ethoxy)-1H-indazol-1-yl)acetyl)-N-(6-bromopyridin-2-yl)-4-fluoro-pyrrolidine-2-carboxamide]: < 1 µM.

With `CC(=O)c1nn(CC(=O)N2C[C@H](F)C[C@H]2C(=O)Nc2nc(Br)ccc2C)c2ccc(OCCS(=O)(=O)CC3(C)COC3)cc12` [Compound T-55, (2S,4R)-1-(2-(3-acetyl-5-(2-(((3-methyloxetan-3-yl)methyl)sulfonyl)ethoxy)-1H-indazol-1-yl)acetyl)-N-(6-bromo-3-methylpyridin-2-yl)-4-fluoro-pyrrolidine-2-carboxamide], the IC50 (Table 6, read-out: IC5 (Stars)) was < 1 µM.
